Test results: PMC6125430, “Structural Analysis of Redox-sensing Transcriptional Repressor Rex from Thermotoga maritima” (Scientific Reports, 2018)

Assays:
TmRex = target: T1, TmRex (Thermotoga maritima, UniProt Q9WY16); assay: X-ray crystallography of the complex; assay type: binding; settings: 1:1 per C-terminal domain
T1 construct: gene rex1; full-length gene (pET28b NdeI/XhoI), N-terminal His6 tag (tag removal told only for SeMet protein), E. coli BL21(DE3) Star pLysS; homodimer; primers encode N-terminal MAEKIPK

[1] = target: the molecule itself; assay: crystal structure; apo TmRex, native protein, 2.0 Å; sitting-drop vapour diffusion at 296 K, 200 mM potassium chloride, 20% (w/v) PEG 3,350; four subunits (two homodimers) in the asymmetric unit

NC(=O)c1ccc[n+]([C@@H]2O[C@H](COP(=O)(O)OP(=O)(O)OC[C@H]3O[C@@H](n4cnc5c(N)ncnc54)[C@H](O)[C@@H]3O)[C@@H](O)[C@H]2O)c1 [NAD^+]
X-ray crystallography of the complex (TmRex; apo crystals soaked with 1 mM NAD+ for 10 h, 2.2 A, open form): The structure of NAD^+-bound TmRex was refined with crystallographic Rwork and Rfree values

NC(=O)C1=CN([C@@H]2O[C@H](COP(=O)(O)OP(=O)(O)OC[C@H]3O[C@@H](n4cnc5c(N)ncnc54)[C@H](O)[C@@H]3O)[C@@H](O)[C@H]2O)C=CC1 [NADH]
X-ray crystallography of the complex (TmRex; co-crystallization with 1 mM NADH, 2.45 A, closed form): NADH-bound TmRex crystals were grown by co-crystallization

B1: Redox-sensing transcriptional repressor Rex from Thermotoga maritima (natural protein, UniProt Q9WY16 1-208, looked up)
chain: MAEKIPKPVSKRLVSYYMCLERLLDEGVEVVSSEELARRLDLKASQIRKDLSYFGEFGKRGVGYNVEHLYDAIGEILGVKKEWKLVVVGAGNIGRAVANYTVMKEKGFRIIGIFDSDPSKIGKEAAPGLTVSDVSELEKFVEEHGVEIGVIAVPAEHAQEIAERLEKAGIKGILNFAPVKIKVSVPVENIDITASLRVLTFEIVRRNS
notes: Rex (TM0169) of Thermotoga maritima, rex gene amplified from genomic DNA with primers from the ATG start codon to the stop codon; residues 1-208 (N-terminal domain 1-77, linker loop 78-83, C-terminal domain 84-208); Cloned into pET28b(+) with NdeI and XhoI; for the native protein in the deposited structures no removal is told; also called TmRex; TM0169; source: E. coli BL21 (DE3) star pLysS, …
binding result [1]: binds
